Tests used:
[1] = test system: anxiety (elevated zero-maze); assay: Elevated zero-maze model of anxiolytic activity; assay type: in vivo, rats; details: dose of 30 mg/Kg, orally 1 hour prior to zero-maze testing
Text: Measurement of Anxiolytic Activity in Mice Using the Elevated Zero-maze Model
The elevated “zero-maze” is a modification of the elevated plus-maze model of anxiety which incorporates both traditional and novel ethological measures in the analysis of drug effects (Shepherd, J. K., Grewal, S. S., Fletcher, A., Bill, D. J. and Dourish, C. T., Behavioural and pharmacological characterisation of the elevated “zero-maze” as an animal model of anxiety. Psychopharmacology, 1994, 116, 56-64).
Male Sprague-Dawley rats (Charles River) weighing 300-450 gm are used. Animals are group-housed (5 per cage; cage size: 40×40×20 cm) in a temperature-controlled environment (20±2° C.), under a 12 h light-dark cycle (lights on: 08:00 hours). Food and water are made freely available. Four hours prior to testing, animals are transferred to clean cages and moved to the testing room in order to habituate to the testing environment.
The maze is comprised of a black Perspex annular platform (105 cm diameter, 10 cm width) elevated to 65 cm above ground level, divided equally into four quadrants. […]
Rats are placed on a closed quadrant and a 5 min test period is recorded on video-tape. […] Animals are scored as being in the open area when all four paws were in an open quadrant, and in the closed area only when all four paws passed over the open/closed divide. […]

[2] = Solubility measurement; assay type: physicochemical
[3] = test system: 3-MPA-induced seizures; assay: Antagonism of 3-MPA-induced seizures; assay type: in vivo; details: male T/O mice; test drug 30 ng/kg p.o. 60 min before i.v. bolus of 3-MPA; dose of 3-MPA required to evoke a seizure response
Procedure: Antagonism of 3-MPA-Induced Seizures
Several animal seizure models are available for the screening and characterisation of anticonvulsant (antiepileptic) drugs. Most models employ a chemical convulsant to induce seizures and the anticonvulsant potencies of novel compounds are measured in terms of their ability to increase the dose of convulsant required to induce a seizure response (or to prolong the latency to seizure onset following a bolus dose of the convulsant). Most chemical convulsants work by blocking the neurotransmitter function of gamma-aminobutyric acid (GABA), the predominant inhibitory neurotransmitter in the mammalian brain. This can be achieved by blocking the postsynaptic action of GABA using pentylenetetrazol or bicuculline, or via a presynaptic action using a GABA synthesis inhibitor to decrease GABA release into the synapse. In this case, the inhibitor of glutamate decarboxylase (GAD), 3-mercaptopropionic acid (3-MPA), was used as the convulsant challenge agent.
Male albino T/O strain mice (obtained from Tuck) weighing 28-40 g were used in these studies. Animals were assigned randomly to treatment groups and vehicle or test drug (at a dose of […]) were administered p.o. to groups of 12 animals 60 min before the administration of a bolus dose of 3-MPA intravenously. Immediately following 3-MPA administration, each mouse was placed individually into a cage for observation. The seizure response of each animal was scored quantally as present or absent (response or non-response) during the 5 min period immediately following 3-MPA administration. A seizure response was defined as the onset of the initial clonic phase of the seizure (abrupt loss of righting reflex accompanied by vocalisation). The seizure threshold (in terms of mg/kg i.v. of 3-MPA required to evoke a seizure response) was determined in each treatment group by a sequential up/down method followed by modified probit analysis of the quantal data A range of doses of 3-MPA was prepared (12.5-200.0 mg/kg i.v.) increasing by a constant geometric factor […], which was found in pilot studies to generate suitable data for analysis by this method.
In these studies, 3-MPA was obtained from Sigma
Test compounds were prepared as solutions dissolved in 45% w/v aqueous 2-hydroxypropyl-β-cyclodextrin. 3-MPA was dissolved in isotonic saline and its pH adjusted to 6 using 1M sodium hydroxide solution. Drugs were administered in a dose volume of 10 ml/kg body weight.

Aqueous solubility at 1 mg/ml [2] | SMILES | SC = seizure threshold after treatment with test drug [3] | further results
 | C[C@@H](O)CNC(=O)N1CC(Oc2ccc(Cl)cc2)C1 (racemic) [Example 7, (R,S)-3-(4-Chlorophenoxy)-N-(2-hydroxypropyl)azetidine-1-carboximide] |  | anxiolytic activity (increase in the frequency of head dips) [1]: effective
Not soluble | C=CCNC(=O)N1CC(Oc2ccc(C(F)(F)F)cc2)C1 [3-(4-(trifluoromethyl)phenoxy)-N-(2-propenyl)azetidine-1-carboxamide] |  | 
Not soluble | CCCNC(=O)N1CC(Oc2ccc(Cl)cc2)C1 [3-(4-chlorophenoxy)-N-(propyl)azetidine-1-carboxamide] |  | 
Not soluble | NC(=O)N1CC(Oc2ccc(Cl)cc2)C1 [3-(4-chlorophenoxy)azetidine-1-carboxamide] |  | 
 | C[C@@H](O)CNC(=O)N1CC(Oc2ccc(C(C)(C)C)cc2)C1 [Example 1, (R)-3-(4-tert-Butylphenoxy)-N-(2-hydroxypropyl)azetidine-1-carboxamide] | 154.3 mg/kg i.v. | melting point: 98 to 99 °C
 | C[C@H](O)CNC(=O)N1CC(Oc2ccc(Cl)cc2)C1 [Example 3, (S)-3-(4-Chlorophenoxy)-N-(2-hydroxypropyl)azetidine-1-carboxamide] | 59.5 mg/kg i.v. | 
 | CC(C)(O)CNC(=O)N1CC(Oc2ccc(Cl)cc2)C1 [Example 4, 3-(4-Chlorophenoxy)-N-(2-hydroxy-2-methylpropyl)azetidine-1-carboxamide] | 36.9 mg/kg i.v. | 
 | C[C@@H](O)CNC(=O)N1CC(Oc2ccc(F)cc2)C1 [Example 5, (R)-3-(4-Fluorophenoxy)-N-(2-hydroxypropyl)azetidine-1-carboxamide] | 29.8 mg/kg i.v. | melting point: 112 to 114 °C
 | C[C@@H](O)CNC(=O)N1CC(Oc2ccc(Cl)c(Cl)c2)C1 [Example 6, (R)-3-(3,4-Dichlorophenoxy)-N-(2-hydroxypropyl)azetidine-1-carboxamide] | 59.5 mg/kg i.v. | 

SMILES | Aqueous solubility at 1 mg/ml [2] | SC = seizure threshold after treatment with test drug [3] | further results
C[C@@H](O)CNC(=O)N1CC(Oc2ccc(Cl)cc2)C1 [Example 2, (R)-3-(4-Chlorophenoxy)-N-(2-hydroxypropyl)azetidine-1-carboxamide] | Soluble | 109.1 mg/kg i.v. | 
C[C@@H](O)CNC(=O)N1CC(Oc2ccc(C(F)(F)F)cc2)C1 [Example 8] | Soluble | 214.1 mg/kg i.v. | 

Reference: patent US6514961B1, “Azetidinecarboxamide derivatives for the treatment of CNS disorders” (Vernalis Research Limited, priority 1998, dated 2003)
